The structures appear in SMILES notation.

Experiment in the first series: not given
The conditions noted are these: cited from earlier work.
As to `O=C(O)Cc1ccccc1Nc1c(Cl)cccc1Cl` [Diclofenac], the “Log P” value is on record as 4.05.
On to `CCCCNc1ccc(C(=O)OCCN(C)C)cc1` [Tetracaine], for which the “Log P” value is 3.649.
Turning to `Clc1ccccc1C(c1ccccc1)(c1ccccc1)n1ccnc1` [Clotrimazole], the “Log P” value is on record as 6.1.
With `C[C@@H]1C[C@H]2[C@@H]3CCC4=CC(=O)C=C[C@]4(C)[C@@]3(F)[C@@H](O)C[C@]2(C)[C@@]1(O)C(=O)CO` [Dexamethasone], the “Log P” value is 1.869.
Take `O=C(O)c1ccccc1Nc1cccc(C(F)(F)F)c1` [Flufenamic Acid]: the “Log P” value was 5.2.
For `CN(C)CCCN1c2ccccc2Sc2ccc(Cl)cc21` [Chlorpromazine], the “Log P” value was 5.203.
In the case of `C[C@]12CCC(=O)C=C1CC[C@@H]1[C@@H]2[C@@H](O)C[C@@]2(C)[C@H]1CC[C@]2(O)C(=O)CO` [Hydrocortisone], the lipophilicity (Log P) is 1.462.
For `CC(C(=O)O)c1ccc(-c2ccccc2)c(F)c1` (stereo not shown) [Flurbiprofen], the “Log P” value is on record as 4.115.
Consider `CN1CCCC1c1cccnc1` (stereo not shown) [Nicotine], for which the “Log P” value is 0.72.
In the case of `Oc1cc(Cl)ccc1Oc1ccc(Cl)cc1Cl` [Triclosan/Irgasan, Triclosan], the log partition coefficient (Log P) is 4.76.

The same series, now with this note: listed as dexamethasone; cited from earlier work.
As for `C[C@@H]1C[C@H]2[C@@H]3CCC4=CC(=O)C=C[C@]4(C)[C@@]3(F)[C@@H](O)C[C@]2(C)[C@@]1(O)C(=O)CO` [Dexamethasone], the “Log P” value is recorded as 1.896.

Experiment in another series: not given
The note with it: saturated donor solution in water, receptor pH 7.4, 37° C., 0-26 hrs; compared to human, rat, pig skin.
`Clc1ccccc1C(c1ccccc1)(c1ccccc1)n1ccnc1` [Clotrimazole]: the “diffusion (cumulative flux) across treated membrane relative to skin” value is on record as “high degree of correlation with human skin”.
As for `C[C@@H]1C[C@H]2[C@@H]3CCC4=CC(=O)C=C[C@]4(C)[C@@]3(F)[C@@H](O)C[C@]2(C)[C@@]1(O)C(=O)CO` [Dexamethasone], the “diffusion (cumulative flux) across treated membrane relative to skin” value was “diffusion similar to human and pig skin”.

Experiment in another series: not given
The conditions noted are these: cited from earlier work. This is another data set of the same source.
Turning to `CCCCNc1ccc(C(=O)OCCN(C)C)cc1` [Tetracaine], the pKa is reported as 8.24.
As for `C[C@@H]1C[C@H]2[C@@H]3CCC4=CC(=O)C=C[C@]4(C)[C@@]3(F)[C@@H](O)C[C@]2(C)[C@@]1(O)C(=O)CO` [Dexamethasone], the pKa is 12.14.
Consider `C[C@]12CCC(=O)C=C1CC[C@@H]1[C@@H]2[C@@H](O)C[C@@]2(C)[C@H]1CC[C@]2(O)C(=O)CO` [Hydrocortisone], for which the pKa is on record as 12.48.

The next series is described as follows: Transdermal diffusion, vertical Franz Cell, untreated membrane. It is filed as in vitro ADME. The conditions noted are these: saturated donor solution in water, Sorensen's buffer pH 7.4 receptor, 37° C., 0-26 hrs. Here is the method: Conditions for HPLC analysis of flufenamic acid are as noted below: Column Used: Zorbax XDB C18, 3.9 mm×150 mm, 5 μm Mobile Phase Used: 90% Methanol+10% water containing 40 mM acetic acid; Detection wavelength: 280 nm.
As for `O=C(O)c1ccccc1Nc1cccc(C(F)(F)F)c1` [Flufenamic Acid], the “diffusion (cumulative flux) across untreated membrane relative to human skin” value was “better correlation to human skin than the treated membrane”.

Experiment in the next series: not given
The note with it: separate human skin samples compared.
`COC(=O)c1ccc(O)cc1` [Methyl paraben, methyl p-hydroxybenzoate]: the “diffusion (cumulative flux) through separate human skin samples” value is “high degree of variability between the different human skin samples”.

Experiment in another series: not given
The note with it: cited from earlier work. The source holds these as a separate data set.
Consider `COc1cc(Cc2cnc(N)nc2N)cc(OC)c1OC` [Trimethoprim], for which the “Aqueous Solubility, LogS” value is −2.67.
Turning to `O=C(c1ccccc1)c1ccc2n1CCC2C(=O)O` (stereo not shown) [Ketorolac], the “Aqueous Solubility, LogS” value is listed as −2.7.
For the molecule `CCCCNc1ccc(C(=O)OCCN(C)C)cc1` [Tetracaine], the “Aqueous Solubility, LogS” value is recorded as −2.75.
Turning to `Clc1ccccc1C(c1ccccc1)(c1ccccc1)n1ccnc1` [Clotrimazole], the “Aqueous Solubility, LogS” value was −5.37.
As to `C[C@@H]1C[C@H]2[C@@H]3CCC4=CC(=O)C=C[C@]4(C)[C@@]3(F)[C@@H](O)C[C@]2(C)[C@@]1(O)C(=O)CO` [Dexamethasone], the “Aqueous Solubility, LogS” value was −3.89.
With `CN(C)CCCN1c2ccccc2Sc2ccc(Cl)cc21` [Chlorpromazine], the “Aqueous Solubility, LogS” value was −5.01.
Turning to `CC(C(=O)O)c1ccc(-c2ccccc2)c(F)c1` (stereo not shown) [Flurbiprofen], the “Aqueous Solubility, LogS” value is recorded as −4.49.
For the molecule `CN1CCCC1c1cccnc1` (stereo not shown) [Nicotine], the “Aqueous Solubility, LogS” value is given as −0.24.

Experiment in the next series: not given
The conditions noted are these: cited from earlier work. This is another data set of the same source.
Take `O=C(O)Cc1ccccc1Nc1c(Cl)cccc1Cl` [Diclofenac]: the “Log D (pH 7.4)” value is 0.95.
Turning to `CCCCNc1ccc(C(=O)OCCN(C)C)cc1` [Tetracaine], the “Log D (pH 7.4)” value is on record as 2.75.
With `CN(C)CCCN1c2ccccc2Sc2ccc(Cl)cc21` [Chlorpromazine], the “Log D (pH 7.4)” value is reported as 3.22.
As for `CC(C(=O)O)c1ccc(-c2ccccc2)c(F)c1` (stereo not shown) [Flurbiprofen], the “Log D (pH 7.4)” value is 0.98.
For the molecule `CN1CCCC1c1cccnc1` (stereo not shown) [Nicotine], the “Log D (pH 7.4)” value is 0.02.
In the case of `CC(=O)Oc1ccccc1C(=O)O` [Acetyl Salicylic Acid (Aspirin), Acetyl Salicylic Acid], the “Log D (pH 7.4)” value is listed as −1.89.

A further series in a line: Transdermal diffusion (cumulative flux) through rat skin samples. The conditions noted are these: rat skin samples of different ages, or rat versus human skin.
With `C[C@]12CCC(=O)C=C1CC[C@@H]1[C@@H]2[C@@H](O)C[C@@]2(C)[C@H]1CC[C@]2(O)C(=O)CO` [Hydrocortisone], the “diffusion (cumulative flux) through rat skin” value was “does not appear to show a high degree of correlation with human skin”.
On to `CN1CCCC1c1cccnc1` (stereo not shown) [Nicotine], for which the “diffusion (cumulative flux) through rat skin” value was “variability between the rat and human skin samples”.

These data come from patent US8765254B2, “Polymeric membranes with human skin-like permeability properties and uses thereof” (EMD Millipore Corporation, priority 2010, dated 2014).
